Assay results: patent US20070196442A1, “Method for improving the oral administration of alpha-lipoic acid” (priority 2006, published 2007)

How the values were obtained:
[1] = double-blind, randomized comparative taste-test of oral alpha-lipoic acid solutions (throat irritation, overall liking); assay type: in vivo; conditions: of seventeen subjects
pH of aqueous solution = assay type: physicochemical; conditions: noted by the inventors
[2] = background / U.S. Pat. No. 3,562,273; cited from earlier work

SMILES | number of subjects ranking the sample as the most irritating of the three samples [1] | pH of the salt (pH of aqueous solution) | pH in a 0.1M aqueous solution [2]
O=C(O)CCCC[C@@H]1CCSS1 [ALA, 5-[(3R)-dithiolan-3-yl]pentanoic acid] | fourteen | – | –
NC(CO)(CO)CO.O=C(O)CCCCC1CCSS1 (stereo not shown) [TR-ALA, tris(hydroxymethyl) amino methane thioctate] | – | 6.5 to 7.5 | 6.5
NC(CO)(CO)CO [trometamol, 2-amino-2-(hydroxymethyl)propane-1,3-diol] | – | – | 10.4
